Test results published in ChEMBL document CHEMBL3853333, “Synthesis of novel arylaminoquinazolinylurea derivatives and their antiproliferative activities against bladder cancer cell line” (2016).

Experiment: Antiproliferative activity against human RT112 cells after 72 hrs by MTT assay
Assay type: functional
Conditions: RT-112, 72 h

| SMILES | GI50 [nM] |
| --- | --- |
| CCOC(=O)c1ccc(NC(=O)Nc2cccc3c(Nc4cc(OC)cc(OC)c4)ncnc23)cc1 | 317 |
| COc1cc(Nc2ncnc3c(NC(=O)Nc4cccc(C)c4C)cccc23)cc(OC)c1 | 5910 |
| COc1cc(Nc2ncnc3c(NC(=O)Nc4cc(F)cc(F)c4)cccc23)cc(OC)c1 | 2630 |
| COc1cc(Nc2ncnc3c(NC(=O)Nc4ccc(C(F)(F)F)cc4[N+](=O)[O-])cccc23)cc(OC)c1 | > 20000 |
| COc1cc(Nc2ncnc3c(NC(=O)Nc4cccc(Cc5ccccc5)c4)cccc23)cc(OC)c1 | 1740 |
| COc1cc(Nc2ncnc3c(NC(=O)Nc4ccc(F)cc4C(F)(F)F)cccc23)cc(OC)c1 | 2970 |
| COc1cc(Nc2ncnc3c(NC(=O)c4cccc(N5CCN(C)CC5)c4)cccc23)cc(OC)c1 | > 20000 |
| COc1cc(Nc2ncnc3c(NC(=O)Nc4ccc(Cl)cc4Cl)cccc23)cc(OC)c1 | 3060 |
| COc1cc(Nc2ncnc3c(NC(=O)Nc4ccc([N+](=O)[O-])cc4)cccc23)cc(OC)c1 | > 20000 |
| COc1cc(Nc2ncnc3c(NC(=O)Nc4ccccc4Cl)cccc23)cc(OC)c1 | 356 |
| COc1cc(Nc2ncnc3c(NC(=O)c4ccc(N5CCN(C)CC5)cc4)cccc23)cc(OC)c1 | 14200 |
| COc1cc(Nc2ncnc3c(NC(=O)Nc4cc(Cl)cc(Cl)c4)cccc23)cc(OC)c1 | 30.2 |
| COc1cc(Nc2ncnc3c(NC(=O)Nc4ccc(Cl)c(C(F)(F)F)c4)cccc23)cc(OC)c1 | > 20000 |
| COc1cc(Nc2ncnc3c(NC(=O)Nc4ccc5c(c4)OCCO5)cccc23)cc(OC)c1 | 2750 |
| COc1cc(Nc2ncnc3c(NC(=O)c4cc(=O)c5ccccc5o4)cccc23)cc(OC)c1 | > 20000 |
| COc1cc(Nc2ncnc3c(NC(=O)Nc4cc(C)cc(C)c4)cccc23)cc(OC)c1 | 10100 |

| SMILES | GI50 [nM] |
| --- | --- |
| COc1cc(Nc2ncnc3c(NC(=O)Nc4ccc(C(F)(F)F)cc4)cccc23)cc(OC)c1 | 3920 |
| COc1cc(NC(=O)Nc2cccc3c(Nc4cc(OC)cc(OC)c4)ncnc23)cc(OC)c1 | 366 |
| COc1cc(Nc2ncnc3c(NC(=O)Nc4ccc(Cl)cc4)cccc23)cc(OC)c1 | 2490 |
| COc1cc(Nc2ncnc3c(NC(=O)Nc4ccc(Cl)c(Cl)c4)cccc23)cc(OC)c1 | 6230 |
| COc1cc(Nc2ncnc3c(NC(=O)Nc4ccc(C)cc4C)cccc23)cc(OC)c1 | 1290 |
| COc1cc(Nc2ncnc3c(NC(=O)Nc4cccc(Cl)c4Cl)cccc23)cc(OC)c1 | 63.2 |
| COc1cc(Nc2ncnc3c(NC(=O)Nc4cc(Cl)c(Cl)cc4Cl)cccc23)cc(OC)c1 | 4890 |
| COc1cc(Nc2ncnc3c(NC(=O)c4ccc(CN(C)C)cc4)cccc23)cc(OC)c1 | 4370 |
| COc1cc(Nc2ncnc3c(NC(=O)Nc4cccc(C(F)(F)F)c4F)cccc23)cc(OC)c1 | 471 |
| COc1cc(Nc2ncnc3c(NC(=O)Nc4ccc(C(F)(F)F)cc4Cl)cccc23)cc(OC)c1 | 1080 |
| COc1cc(Nc2ncnc3c(NC(=O)Nc4cccc(Oc5ccccc5)c4)cccc23)cc(OC)c1 | 14000 |
| COc1cc(Nc2ncnc3c(NC(=O)Nc4ccc(F)cc4F)cccc23)cc(OC)c1 | 2460 |
| COc1cc(Nc2ncnc3c(NC(=O)Nc4ccc(C)c(C)c4)cccc23)cc(OC)c1 | 8.8 |
| COc1cc(Nc2ncnc3c(NC(=O)Nc4cc(C(F)(F)F)cc(C(F)(F)F)c4)cccc23)cc(OC)c1 | 467 |
| COc1cc(CCc2cc(NC(=O)c3ccc(N4C[C@@H](C)N[C@@H](C)C4)cc3)n[nH]2)cc(OC)c1 [FEXAGRATINIB] | 29.2 |
| CCN(CC)CCCCNc1ncc2cc(-c3cc(OC)cc(OC)c3)c(NC(=O)NC(C)(C)C)nc2n1 [PD-173074] | 15 |
